No end group written: not given here.

The target of this assay is T1, CCL8 (Homo sapiens, UniProt P80075).
T1 construct: SUMO (in-house protein only) (cleaved yes); made in house; host or cells: Escherichia coli RosettaGami 2 (DE3)
T1 sequence (P80075 24-99): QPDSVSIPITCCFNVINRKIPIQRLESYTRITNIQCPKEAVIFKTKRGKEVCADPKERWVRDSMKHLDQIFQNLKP
Nature of the assay: Fluorescence polarisation (anisotropy) assay. The class given is binding. The conditions noted are these: fluorescence polarisation displacement assay.

As for EDEDYEDFFKPVTAYF-NH2 [BK1.1], the “Displacement of FITC-labelled peptide from CCL8 by unlabelled peptide” value is listed as “indicate its binding”. For the same substance, where the note is “listed as P672_PEP”, the “Displacement of FITC-labelled peptide from CCL8 by unlabelled peptide” value is given as “able to displace labelled peptide bound to chemokine”.

The values are drawn from patent publication US20200247855A1, “THERAPY AND DIAGNOSTICS” (OXFORD UNIVERSITY INNOVATION LIMITED, priority 2017, published 2020).
